{"source": "patent US7223793B2", "about": "“Phenolic acid derivatives and composition for preventing or treating blood lipid level-related diseases comprising the same” (Bionutrigen Co., Ltd., priority 2001, dated 2007)", "key": {"Sprague-Dawley rats": {"test_system": "Sprague-Dawley rats", "assay": "Effect on hyperlipemia in rats fed high-cholesterol diet (Experimental Example 6)", "format": "in vivo, rat", "conditions": "rats on 1% cholesterol diet, 6 weeks; for Atherogenic index (AI): (total cholesterol − HDL cholesterol)/HDL cholesterol; for HDL-cholesterol / Neutral fat / Total cholesterol: 0.02% lovastatin, 0.039% BN30063, 0.040% BN30064, 0.041% BN30067 in diet; for HDL-cholesterol / Neutral fat / Total cholesterol / HDL-cholesterol/total cholesterol: average", "text": "50 of 4-week-old male white Sprague-Dawley rats (Bio Genomics Inc., Korea), each weighing about 90 to 110 g, were divided into five groups by a randomized block design. The rats of the five groups were fed with five different high-cholesterol diets, i.e., AIN-76 laboratory animal diets (TEKLAD premier Co., Madison, Wis., U.S.A.) containing 1% cholesterol (Control group), 1% cholesterol plus 0.02% lovastatin (Choongwae Pharma. Corp., Korea), 1% cholesterol plus 0.039% BN30063, 1% cholesterol plus 0.040% BN30064, and 1% cholesterol plus 0.041% BN30067, respectively, as shown in Table VII.\nThe animals were allowed free access to the specified diets and water for 6 weeks and the ingestion amounts were recorded daily. The rats were weighed every 7 days, and then the record was analyzed.\nBlood samples were taken from vena hypogastrica of the rats of the five dietary groups raised for six weeks in Step 1. The blood was allowed to stand for 2 hours and centrifuged at 3,000 rpm for 15 minutes and the supernatant containing serum was separated and stored in a deep freezer before use. The total cholesterol level was measured using a diagnosis kit purchased from Sigma, Cat. No.: C0534, applying the method of Allain et al. (Allain et al., Clin. Chem., 20, 470-475 (1974)). The HDL fraction was separated using a kit purchased from Sigma, Cat. No.: 352-1 applying the heparin-manganese precipitation method (Waenic R. G. and Albers J. J., J Lipid Res., 19, 65-76 (1978)) and the HDL-cholesterol level was measured using a kit purchased from Sigma, Cat. No.: C9908. The neutral fat level was measured using a kit purchased from Sigma, Cat. No.: 336-10) applying the lipase-glycerol phosphate oxidase method (McGowan, M. W. et al., Clin. Chem., 29, 538-542(1983))."}, "HMG-CoA reductase": {"molecular_target": "T1, HMG-CoA reductase (Rattus norvegicus, UniProt P51639)", "T1 construct": "the supernatant was ultracentrifuged (100,000×g for 60 minutes) to obtain microsomal precipitates; from tissue; host or cells: liver microsomes of treated rats", "T1 sequence (P51639 1-887)": "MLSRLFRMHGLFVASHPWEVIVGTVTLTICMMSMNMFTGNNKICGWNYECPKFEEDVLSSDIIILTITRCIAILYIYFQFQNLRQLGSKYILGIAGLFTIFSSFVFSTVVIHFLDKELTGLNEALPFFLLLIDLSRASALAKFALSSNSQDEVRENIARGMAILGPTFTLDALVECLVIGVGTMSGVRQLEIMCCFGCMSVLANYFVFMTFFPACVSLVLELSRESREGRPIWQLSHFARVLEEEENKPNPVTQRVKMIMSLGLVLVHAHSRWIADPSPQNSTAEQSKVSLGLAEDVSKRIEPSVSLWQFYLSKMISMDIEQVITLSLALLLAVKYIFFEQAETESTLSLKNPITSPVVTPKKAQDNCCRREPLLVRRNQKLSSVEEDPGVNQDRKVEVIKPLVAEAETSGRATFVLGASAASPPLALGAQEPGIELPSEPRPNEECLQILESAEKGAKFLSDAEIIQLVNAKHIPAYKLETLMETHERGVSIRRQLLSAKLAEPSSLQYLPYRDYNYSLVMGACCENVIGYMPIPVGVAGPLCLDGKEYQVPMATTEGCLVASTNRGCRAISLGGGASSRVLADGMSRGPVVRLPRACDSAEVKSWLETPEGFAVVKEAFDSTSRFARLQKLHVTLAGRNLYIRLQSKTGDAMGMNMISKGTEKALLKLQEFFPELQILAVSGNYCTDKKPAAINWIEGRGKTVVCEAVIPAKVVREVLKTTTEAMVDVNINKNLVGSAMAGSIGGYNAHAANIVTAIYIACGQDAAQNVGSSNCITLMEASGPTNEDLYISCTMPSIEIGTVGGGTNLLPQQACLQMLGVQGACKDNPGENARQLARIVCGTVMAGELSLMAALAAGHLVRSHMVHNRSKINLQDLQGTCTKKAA", "assay": "HMG-CoA reductase activity in liver microsomes of treated rats (Experimental Example 6, Step 4)", "format": "in vivo", "parameters": "HMG-CoA reductase: unit not given here", "conditions": "for HMG-CoA reductase: activity in liver microsomes of rats fed 6 weeks, CoA-SH by absorbance at 412 nm, average; for Inhibition of HMG-CoA reductase activity: liver microsomes of rats fed 6 weeks, relative to control group", "experimental": "In order to measure the activity of HMG-CoA reductase, the method described by Hulcher et al. (J. Lipid Res., 14, 625-641 (1973)) was employed after some modification. In this method, the concentration of the coenzyme-A (CoA-SH), which is produced when HMG-CoA is reduced to a mevalonate salt by the action of HMG-CoA reductase, is determined by spectroscopy and the activity of HMG-CoA reductase is calculated therefrom.\n3 g of liver tissue taken from each sacrificed rat of Step 2 was washed successively with 100 ml of a cold Saline (0.15M NaCl) and 100 ml of a cold buffer solution A (0.1M triethanolamine, HCl/0.2M EDTA/2 mM dithiothreitol). The cold buffer solution A was added to the liver tissue in an amount of 2 ml per 1 g of the liver tissue and the mixture was homogenized with a homogenizer. The homogenate was centrifuged (15,000×g for 15 minutes), and then, the supernatant was ultracentrifuged (100,000×g for 60 minutes) to obtain microsomal precipitates. The precipitates thus obtained were washed with 2 mL of a cold buffer solution A and ultracentrifuged (100,000×g for 60 minutes) to obtain precipitates. The precipitates thus obtained were washed with a 1 mL of cold buffer solution A and kept in a 1.5 mL tube at −70° C.\nThe reaction substrates used in the measurement of HMG-CoA reductase activity were as follows:\ni) buffer solution B: 0.1M triethanolamine, HCl/0.02M EDTA (pH7.4),\nii) HMG-CoA solution: 150 mmoles/culture medium, and\niii) NADPH solution: 2 mmoles/culture medium.\nThe suspension (microsome) prepared in the above was mixed with the reaction substrate and the resulting mixture was placed in a centrifugation tube and reacted at 37° C. for 30 minutes. The reaction mixture was treated with 20 μl of 0.1M sodium arsenite and allowed to stand for 1 minute. Then, the mixture was reacted with 100 μl of citrate buffer solution (2M citrate/3% sodium tungstate, pH 3.5) at 37° C. for 10 minutes followed by centrifugation (25,000×g for 15 minutes) to remove protein. 1 mL of the supernatant thus obtained was transferred into a tube with a cap and 0.2 mL of 2M tris-HCl solution (pH 10.6) and 0.1 ml of 2M tris-HCl solution (pH 8.0) were added thereto to adjust the pH of the reaction to 8.0. Then, the reaction was mixed with 20 μl of DTNB buffer solution (3mM DTNB/0.1M triethanolamine/0.2M EDTA, pH 7.4) and the absorbance of the mixture was determined at 412 nm to calculate the amount of CoA-SH (activity of HMG-COA reductase). The inhibition of HMG-CoA reductase activity of the control and treated groups were calculated based on the above results."}}}
{"smiles": "CC(C)CC(NC(=O)CCc1ccc(O)c(O)c1)C(=O)O", "note": "(stereo not drawn) [BN30064, 2-[3-(3,4-dihydroxyphenyl)propionylamino]-4-methyl pentanoic acid]", "values": [{"measurement": "Atherogenic index (AI)", "setting": "Sprague-Dawley rats", "result": 1.61}, {"measurement": "Increase of HDL-cholesterol to total cholesterol as compared to the control group", "setting": "Sprague-Dawley rats", "result": 68.10, "unit": "%"}, {"measurement": "Reduction of atherogenic index as compared to the control group", "setting": "Sprague-Dawley rats", "result": 51.06, "unit": "%"}, {"measurement": "Reduction of neutral fat level as compared to the control group", "setting": "Sprague-Dawley rats", "result": 29.35, "unit": "%"}, {"measurement": "Reduction of total plasma cholesterol level as compared to the control group", "setting": "Sprague-Dawley rats", "result": 21.92, "unit": "%"}, {"measurement": "HDL-cholesterol", "setting": "Sprague-Dawley rats", "result": 28.49, "unit": "mg/dL"}, {"measurement": "Neutral fat", "setting": "Sprague-Dawley rats", "result": 73.07, "unit": "mg/dL"}, {"measurement": "Total cholesterol", "setting": "Sprague-Dawley rats", "result": 75.71, "unit": "mg/dL"}, {"measurement": "HDL-cholesterol/total cholesterol", "setting": "Sprague-Dawley rats", "result": 40.78, "unit": "%"}, {"measurement": "HMG-CoA reductase", "setting": "HMG-CoA reductase", "result": 124.74}]}
{"smiles": "CC[C@H](C)C(=O)O[C@H]1C[C@@H](C)C=C2C=C[C@H](C)[C@H](CC[C@@H]3C[C@@H](O)CC(=O)O3)[C@H]21", "note": "[Lovastatin, reference compound]", "values": [{"measurement": "Atherogenic index (AI)", "setting": "Sprague-Dawley rats", "result": 2.58}, {"measurement": "Increase of HDL-cholesterol to total cholesterol as compared to the control group", "setting": "Sprague-Dawley rats", "result": 20, "unit": "%"}, {"measurement": "Reduction of atherogenic index as compared to the control group", "setting": "Sprague-Dawley rats", "result": 21.58, "unit": "%"}, {"measurement": "Reduction of neutral fat level as compared to the control group", "setting": "Sprague-Dawley rats", "result": 18.92, "unit": "%"}, {"measurement": "Reduction of total plasma cholesterol level as compared to the control group", "setting": "Sprague-Dawley rats", "result": 10, "unit": "%"}, {"measurement": "HDL-cholesterol", "setting": "Sprague-Dawley rats", "result": 24.83, "unit": "mg/dL"}, {"measurement": "Neutral fat", "setting": "Sprague-Dawley rats", "result": 83.85, "unit": "mg/dL"}, {"measurement": "Total cholesterol", "setting": "Sprague-Dawley rats", "result": 86.51, "unit": "mg/dL"}, {"measurement": "HDL-cholesterol/total cholesterol", "setting": "Sprague-Dawley rats", "result": 29.13, "unit": "%"}, {"measurement": "HMG-CoA reductase", "setting": "HMG-CoA reductase", "result": 173.25}, {"measurement": "Inhibition of HMG-CoA reductase activity", "setting": "HMG-CoA reductase", "result": 29.40, "unit": "%"}]}
{"smiles": "O=C(O)CC(NC(=O)CCc1ccc(O)c(O)c1)C(=O)O", "note": "(stereo not drawn) [BN30067, 2-[3-(3,4-dihydroxyphenyl)propionylamino]-succinic acid]", "values": [{"measurement": "Atherogenic index (AI)", "setting": "Sprague-Dawley rats", "result": 1.96}, {"measurement": "Increase of HDL-cholesterol to total cholesterol as compared to the control group", "setting": "Sprague-Dawley rats", "result": 42.70, "unit": "%"}, {"measurement": "Reduction of atherogenic index as compared to the control group", "setting": "Sprague-Dawley rats", "result": 40.43, "unit": "%"}, {"measurement": "Reduction of neutral fat level as compared to the control group", "setting": "Sprague-Dawley rats", "result": 63.87, "unit": "%"}, {"measurement": "Reduction of total plasma cholesterol level as compared to the control group", "setting": "Sprague-Dawley rats", "result": 27.82, "unit": "%"}, {"measurement": "HDL-cholesterol", "setting": "Sprague-Dawley rats", "result": 23.81, "unit": "mg/dL"}, {"measurement": "Neutral fat", "setting": "Sprague-Dawley rats", "result": 37.37, "unit": "mg/dL"}, {"measurement": "Total cholesterol", "setting": "Sprague-Dawley rats", "result": 69.99, "unit": "mg/dL"}, {"measurement": "HDL-cholesterol/total cholesterol", "setting": "Sprague-Dawley rats", "result": 34.62, "unit": "%"}, {"measurement": "HMG-CoA reductase", "setting": "HMG-CoA reductase", "result": 136.15}]}
{"smiles": "COC(=O)C(CO)NC(=O)CCc1ccc(O)c(O)c1", "note": "(stereo not drawn) [BN30063, 2-[3-(3,4-dihydroxyphenyl)propionylamino]-3-hydroxy propionic acid methyl ester]", "values": [{"measurement": "Atherogenic index (AI)", "setting": "Sprague-Dawley rats", "result": 1.39}, {"measurement": "Increase of HDL-cholesterol to total cholesterol as compared to the control group", "setting": "Sprague-Dawley rats", "result": 78.28, "unit": "%"}, {"measurement": "Reduction of atherogenic index as compared to the control group", "setting": "Sprague-Dawley rats", "result": 57.75, "unit": "%"}, {"measurement": "Reduction of neutral fat level as compared to the control group", "setting": "Sprague-Dawley rats", "result": 49.41, "unit": "%"}, {"measurement": "Reduction of total plasma cholesterol level as compared to the control group", "setting": "Sprague-Dawley rats", "result": 29.8, "unit": "%"}, {"measurement": "HDL-cholesterol", "setting": "Sprague-Dawley rats", "result": 28.97, "unit": "mg/dL"}, {"measurement": "Neutral fat", "setting": "Sprague-Dawley rats", "result": 52.31, "unit": "mg/dL"}, {"measurement": "Total cholesterol", "setting": "Sprague-Dawley rats", "result": 68.06, "unit": "mg/dL"}, {"measurement": "HDL-cholesterol/total cholesterol", "setting": "Sprague-Dawley rats", "result": 43.25, "unit": "%"}, {"measurement": "HMG-CoA reductase", "setting": "HMG-CoA reductase", "result": 196.11}, {"measurement": "Inhibition of HMG-CoA reductase activity", "setting": "HMG-CoA reductase", "result": 20.09, "unit": "%"}]}
